From article PMC8944080, “Production of indole by Corynebacterium glutamicum microbial cell factories for flavor and fragrance applications” (Microbial Cell Factories, 2022)

Target: T1, PrTNA (Proteiniclasticum ruminis, UniProt A0A1I5A1Q1)
T1 construct: gene tnaA; full length, untagged, codon-optimised gene in pGold, expressed in C. glutamicum C1*
T1 sequence (A0A1I5A1Q1 1-461): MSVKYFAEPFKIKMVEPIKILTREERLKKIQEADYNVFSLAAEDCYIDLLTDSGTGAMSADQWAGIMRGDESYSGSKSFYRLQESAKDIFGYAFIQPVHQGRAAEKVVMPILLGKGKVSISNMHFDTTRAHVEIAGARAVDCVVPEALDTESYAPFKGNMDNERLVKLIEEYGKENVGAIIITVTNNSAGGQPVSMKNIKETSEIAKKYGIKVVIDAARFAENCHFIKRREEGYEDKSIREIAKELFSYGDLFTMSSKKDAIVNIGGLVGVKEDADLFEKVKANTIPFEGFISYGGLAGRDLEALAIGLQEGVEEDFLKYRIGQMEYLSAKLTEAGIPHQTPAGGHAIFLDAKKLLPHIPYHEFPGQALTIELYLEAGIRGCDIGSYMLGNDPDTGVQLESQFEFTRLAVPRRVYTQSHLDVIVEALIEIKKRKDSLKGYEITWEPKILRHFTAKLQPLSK
Assay: whole-cell conversion to indole, HPLC
Format: cell-based
Conditions: C. glutamicum C1* co-expressing aroP, CGXII medium, 1 g L^−1 Trp; empty vector control without aroP

**Q.** Which “whole-cell conversion to indole, HPLC” value does the source give for `N[C@@H](Cc1c[nH]c2ccccc12)C(=O)O` [L-tryptophan] here?
**A.** Indole production was observed for all six tested TNAs
